Values after ≈ are worked out from the molar mass of the structure shown. Where two headings read alike, the source gives them in different places.
Tests used:
Aspergillus niger [1] = experiment: Broth two-fold serial dilution MIC test (Table 3), A.n; assay type: cell-based; conditions: dilution series 500 to 4 ppm
Source text: (§1) A minimum inhibitory concentration (MIC) value is obtained using a broth, two-fold serial dilution test performed as follows: A stock solution or dispersion of the test compound, typically at a concentration of 1%, is made in a 5:3:2 solvent solution of acetone, methanol, and water. A volume of the stock solution is dispensed into culture media to give an initial starting test concentration of 500 ppm compound.
(§2) When the test is ready to be done, each vessel in the dilution series, except the first vessel, contains an equal volume of compound free broth. The first vessel contains twice the volume of broth with the starting concentration of test compound. One half of the broth from the first vessel is transferred to the second vessel. After being mixed, one half the resulting volume is removed from the second vessel and transferred to the third vessel. The entire cycle is repeated sufficiently to give a series of concentrations amounting to 500, 250, 125, 63, 31, 16, 8, and 4 ppm, respectively.
(§3) Each vessel is then inoculated with a cell suspension of the appropriate test organism. Bacteria are grown in broth and fungi on agar slants for a time and at a temperature appropriate to the species being tested. At the end of the growth period, the broth is vortexed to disperse the cells. In the case of fungi, the spores are harvested by pipetting water onto the slant and dislodging the spores with a sterile loop. The cell/spore suspension is standardized by controlling incubation time, temperature, and the volume of the diluent. The suspension is then used to inoculate the vessels containing the broth compound. The vessels are then incubated at the appropriate temperature. After the incubation, the vessels are examined for growth/no growth. The minimum inhibitory concentration (MIC) is defined as the lowest concentration of compound that results in complete inhibition of growth of the test organism.

Aureobasidium pullulans [2] = experiment: Broth two-fold serial dilution MIC test (Table 3), A.p; assay type: cell-based; conditions: dilution series 500 to 4 ppm
Source text: as §1, §2, §3
Aureobasidium pullulans (A.p)

Escherichia coli [3] = experiment: Broth two-fold serial dilution MIC test (Table 3), E.c; assay type: cell-based; conditions: gram negative, dilution series 500 to 4 ppm
Source text: as §1, §2, §3
Escherichia coli (E.c), gram negative

Pseudomonas aerugenosa [4] = experiment: Broth two-fold serial dilution MIC test (Table 3), Ps.ae; assay type: cell-based; conditions: gram negative, dilution series 500 to 4 ppm
Source text: as §1, §2, §3
Pseudomonas aerugenosa (Ps.ae), gram negative

Pseudomonas fluorescens [5] = experiment: Broth two-fold serial dilution MIC test (Table 3), Ps.fl; assay type: cell-based; conditions: gram negative, dilution series 500 to 4 ppm
Source text: as §1, §2, §3
Pseudomonas fluorescens (Ps.fl), gram negative

Staphylococcus aureus [6] = experiment: Broth two-fold serial dilution MIC test (Table 3), S.a; assay type: cell-based; conditions: gram positive, dilution series 500 to 4 ppm
Source text: as §1, §2, §3
Staphylococcus aureus (S.a), gram positive

Piricularia oryzae = experiment: whole plant or invertebrate; assay type: in vivo; conditions: for pest or weed control at 100 ppm: read-out: % Control RB, application rate 100 ppm
[7] = system: Pellicularia filamentosa (f. sp. sasiki); experiment: whole plant or invertebrate; assay type: in vivo; conditions: 120 h; read-out: % Control RSB
Phytophthora infestans = experiment: whole plant or invertebrate; assay type: in vivo
[8] = system: Puccinia recondita (f. sp. tritici Races PKB and PLD); experiment: whole plant or invertebrate; assay type: in vivo
[9] = system: Erysiphe graminis (f. sp. tritici); experiment: whole plant or invertebrate; assay type: in vivo
[10] = system: Pseudoperonospora cubensis; experiment: whole plant or invertebrate; assay type: in vivo
[11] = system: Puccinia graminis (f. sp. tritici Race 15B-2); experiment: whole plant or invertebrate; assay type: in vivo; conditions: for pest or weed control at 200 ppm: Puccinia graminis, 336 h, read-out: % Control WSR
Aspergillus niger [12] = experiment: Alternate Minimum Inhibitory Concentrations Test (Table 4), A.n; assay type: cell-based; conditions: Table 4 alternate test, 250 ppm to 0.8 ppm in TSB
Aureobasidium pullulans [13] = experiment: Alternate Minimum Inhibitory Concentrations Test (Table 4), A.p; assay type: cell-based; conditions: Table 4 alternate test, 250 ppm to 0.8 ppm in TSB
Candida albicans = experiment: Alternate Minimum Inhibitory Concentrations Test (Table 4), C.alb; assay type: cell-based; conditions: Table 4 alternate test, 250 ppm to 0.8 ppm in TSB
Escherichia coli [14] = experiment: Alternate Minimum Inhibitory Concentrations Test (Table 4), E.c; assay type: cell-based; conditions: Table 4 alternate test, 250 ppm to 0.8 ppm in TSB
Pseudomonas aerugenosa [15] = experiment: Alternate Minimum Inhibitory Concentrations Test (Table 4), Ps.ae; assay type: cell-based; conditions: Table 4 alternate test, 250 ppm to 0.8 ppm in TSB
Pseudomonas fluorescens [16] = experiment: Alternate Minimum Inhibitory Concentrations Test (Table 4), Ps.fl; assay type: cell-based; conditions: Table 4 alternate test, 250 ppm to 0.8 ppm in TSB, 72 hours, 30° C.; for MIC: Pseudomonas fluorescens, read-out: MIC Ps.fl
How it was run: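 Broth microdilution MIC in TSB: compound (from acetone stock) serially diluted 1:1 from 250 ppm to 0.8 ppm, inoculated with diluted 24 h culture. After 3 days at 30 °C, the lowest concentration with no growth was recorded as MIC.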

Staphylococcus aureus [17] = experiment: Alternate Minimum Inhibitory Concentrations Test (Table 4), S.a; assay type: cell-based; conditions: Table 4 alternate test, 250 ppm to 0.8 ppm in TSB
Pythium ultimum = Pythium ultimum in vitro Fungitoxicity Assay in liquid culture; assay type: cell-based, Pythium ultimum (ATCC 26083); conditions: mycelial dry weight, 48 h at 25° C., shaking at 60 rpm
Protocol: Selected compounds of Examples 1-120 were subjected also to the following in vitro fungitoxicity assay against Pythium ultimum in a liquid culture, with the results as indicated in Table 6.
Pythium ultimum Fungitoxicity Assay
A dilution series of the test compound was prepared in dimethylsulfoxide, and 0.1 ml of each dilution was added to 19.9 ml of a liquid asparagine-sucrose medium (D. C. Erwin and K. Katznelson (1971), Can. J. Microbiol. 7, 15) in 9 cm diameter petri dishes to give the desired final concentrations of test compound. Plates were inoculated with mycelial plugs, 7 mm diameter, taken from the growing edge of 48 h old cultures of Pythium ultimum, (ATCC 26083), grown on potato dextrose agar. Two replicate plates were used for each treatment. The increase in mycelial dry weight was determined after growth for 48 h at 25° C. with shaking at 60 rpm. EC50 values were calculated from dose response curves.

[18] = Phytophthora infestans, in Solanum lycopersicum, 96 h, read-out: % Control TLB
[19] = Puccinia recondita, 240 h, read-out: % Control WLR
[20] = Blumeria graminis, read-out: % Control WPM
[21] = Pseudoperonospora cubensis, in Cucumis sativus, 168 h, read-out: % Control CDM

**Q.** Which MIC (Aspergillus niger [1]) does the source give for CCCCCCCCNC(=O)/C=C\SC(=O)C1=CCCCC1 [Compound 9, N-octyl-cis-3-[(1-cyclohexene)carbonylthio]acrylamide] here?
**A.** > 500 mg/L

**Q.** What about the MIC (Aureobasidium pullulans [2]) of the same molecule?
**A.** < 4 mg/L

**Q.** And the MIC (Escherichia coli [3])?
**A.** > 500 mg/L

**Q.** And the MIC (Pseudomonas aerugenosa [4])?
**A.** > 500 mg/L

**Q.** And the MIC (Pseudomonas fluorescens [5])?
**A.** > 500 mg/L

**Q.** What about the MIC (Staphylococcus aureus [6]) of the same molecule?
**A.** > 500 mg/L

**Q.** And the pest or weed control at 100 ppm (Piricularia oryzae; Pyricularia oryzae)?
**A.** 90%

**Q.** And the pest or weed control at 100 ppm [7]?
**A.** 0%

**Q.** What about the pest or weed control at 100 ppm (Phytophthora infestans; [18]) of the same molecule?
**A.** 90%

**Q.** And the pest or weed control at 100 ppm [8, 19]?
**A.** 0%

**Q.** What about the pest or weed control at 100 ppm [9, 20] of the same molecule?
**A.** 0%

**Q.** Which MIC (Aspergillus niger [1]) does the source give for CCCCCCCCNC(=O)/C=C\SC(=O)CC [Compound 10, N-octyl-cis-3-(propanoylthio)acrylamide] here?
**A.** 125 mg/L (≈ 461 µM)

**Q.** What about the MIC (Aureobasidium pullulans [2]) of the same molecule?
**A.** < 4 mg/L

**Q.** What about the MIC (Escherichia coli [3]) of the same molecule?
**A.** > 500 mg/L

**Q.** And the MIC (Pseudomonas aerugenosa [4])?
**A.** > 500 mg/L

**Q.** And the MIC (Pseudomonas fluorescens [5])?
**A.** 16 mg/L (≈ 58.9 µM)

**Q.** What about the MIC (Staphylococcus aureus [6]) of the same molecule?
**A.** < 4 mg/L

**Q.** And the pest or weed control at 50 ppm [10, 21]?
**A.** 85%

**Q.** What about the pest or weed control at 100 ppm (Piricularia oryzae; Pyricularia oryzae) of the same molecule?
**A.** 80%

**Q.** And the pest or weed control at 100 ppm [7]?
**A.** 0%

**Q.** What about the pest or weed control at 100 ppm (Phytophthora infestans; [18]) of the same molecule?
**A.** 90%

**Q.** And the pest or weed control at 100 ppm [8, 19]?
**A.** 50%

**Q.** And the pest or weed control at 100 ppm [9, 20]?
**A.** 0%

**Q.** And the pest or weed control at 200 ppm [11]?
**A.** 90%

**Q.** CCCCCCCCNC(=O)/C=C\SC(=O)CCC1CCCC1 [Compound 11, N-octyl-cis-3-[(3-cyclopentanepropanoyl)thio]acrylamide] was tested. Which MIC (Aspergillus niger [1]) did it give?
**A.** 250 mg/L (≈ 736 µM)

**Q.** And the MIC (Aureobasidium pullulans [2])?
**A.** < 4 mg/L

**Q.** And the MIC (Escherichia coli [3])?
**A.** > 500 mg/L

**Q.** What about the MIC (Pseudomonas aerugenosa [4]) of the same molecule?
**A.** > 500 mg/L

**Q.** And the MIC (Pseudomonas fluorescens [5])?
**A.** > 500 mg/L

**Q.** And the MIC (Staphylococcus aureus [6])?
**A.** > 500 mg/L

**Q.** What about the pest or weed control at 50 ppm [10, 21] of the same molecule?
**A.** 85%

**Q.** And the pest or weed control at 50 ppm (Piricularia oryzae; Pyricularia oryzae, read-out: % Control RB, application rate 50 ppm)?
**A.** 75%

**Q.** And the pest or weed control at 100 ppm [7]?
**A.** 0%

**Q.** And the pest or weed control at 100 ppm (Phytophthora infestans; [18])?
**A.** 90%

**Q.** And the pest or weed control at 100 ppm [8, 19]?
**A.** 50%

**Q.** And the pest or weed control at 100 ppm [9, 20]?
**A.** 0%

**Q.** And the pest or weed control at 200 ppm [11]?
**A.** 90%

**Q.** Which MIC (Aspergillus niger [12]) does the source give for CCCCCCCCNC(=O)/C=C\SC(=O)CCCl [Compound 24, N-octyl-cis-3-[(3-chloropropanoyl)thio]acrylamide] here?
**A.** 63 mg/L (≈ 206 µM)

**Q.** What about the MIC (Aureobasidium pullulans [13]) of the same molecule?
**A.** < 2 mg/L

**Q.** What about the MIC (Candida albicans) of the same molecule?
**A.** 12 mg/L (≈ 39.2 µM)

**Q.** And the MIC (Escherichia coli [14])?
**A.** > 250 mg/L

**Q.** What about the MIC (Pseudomonas aerugenosa [15]) of the same molecule?
**A.** > 250 mg/L

**Q.** What about the MIC (Pseudomonas fluorescens [16]) of the same molecule?
**A.** > 250 mg/L

**Q.** What about the MIC (Staphylococcus aureus [17]) of the same molecule?
**A.** > 250 mg/L

**Q.** What about the pest or weed control at 100 ppm (Piricularia oryzae; Pyricularia oryzae) of the same molecule?
**A.** 0%

**Q.** And the pest or weed control at 100 ppm [7]?
**A.** 0%

**Q.** And the pest or weed control at 100 ppm (Phytophthora infestans; Phytophthora infestans, in Solanum lycopersicum, 96 h, read-out: % Control TLB, application rate 100 ppm)?
**A.** 95%

**Q.** What about the pest or weed control at 100 ppm [8, 19] of the same molecule?
**A.** 0%

**Q.** What about the pest or weed control at 100 ppm [9, 20] of the same molecule?
**A.** 0%

**Q.** Which MIC (Aspergillus niger [1]) does the source give for CCCCCCCCNC(=O)/C=C\SC(=O)N(c1ccccc1)c1ccccc1 [Compound 41, N-octyl-cis-3-(diphenylaminocarbonylthio)acrylamide] here?
**A.** > 500 mg/L

**Q.** And the MIC (Aureobasidium pullulans [2])?
**A.** > 500 mg/L

**Q.** And the MIC (Escherichia coli [3])?
**A.** > 500 mg/L

**Q.** And the MIC (Pseudomonas aerugenosa [4])?
**A.** > 500 mg/L

**Q.** And the MIC (Pseudomonas fluorescens [5])?
**A.** > 500 mg/L

**Q.** What about the MIC (Staphylococcus aureus [6]) of the same molecule?
**A.** ≥ 500 mg/L

**Q.** What about the MIC (Pseudomonas fluorescens [16]) of the same molecule?
**A.** > 250 mg/L

**Q.** What about the pest or weed control at 200 ppm [10, 21] of the same molecule?
**A.** 0%

**Q.** What about the pest or weed control at 200 ppm (Piricularia oryzae; Pyricularia oryzae, read-out: % Control RB, application rate 200 ppm) of the same molecule?
**A.** 0%

**Q.** And the pest or weed control at 100 ppm [7]?
**A.** 0%

**Q.** And the pest or weed control at 200 ppm (Phytophthora infestans; Phytophthora infestans, in Solanum lycopersicum, 96 h, read-out: % Control TLB, application rate 200 ppm)?
**A.** 0%

**Q.** What about the pest or weed control at 25 ppm [8, 19] of the same molecule?
**A.** 100%

**Q.** And the pest or weed control at 200 ppm [9, 20]?
**A.** 0%

**Q.** Which results are given for CCCCCCCCNC(=O)/C=C\SCC(O)c1ccco1 (stereo not shown) [Compound 42]?
**A.** MIC Ps.fl (Pseudomonas fluorescens [16]): > 250 Ppm; % Control CDM ([10]; in vivo): 50 % Control; % Control RB (Piricularia oryzae; in vivo): 90 % Control; % Control TLB (Phytophthora infestans; application rate 200 ppm): 0 % Control; % Control WLR ([8]; in vivo): 0 % Control; % Control WPM ([9]; in vivo): 0 % Control; % Control WSR ([11]; application rate 200 ppm): 50 % Control; EC50 (Pythium ultimum): 9 ppm

— US5300672A (priority 1992, dated 1994)
